The compounds below were run against T1, GABAB receptor (GABABR1a/GABABR2 heterodimer) (Homo sapiens, UniProt O75899+Q9UBS5) (assay: [35S]-GTPγS binding assay, potency of PAM (GABA dose-response curves with and without test compound)). Details: potency of the positive allosteric modulator; GABA dose-response in presence of test compound.
T1 construct: expressed in transfected cells
Format: biochemical
Text: GABABR1a and GABABR2 were cloned from human brain cDNA and subcloned into pCI-Neo (Promega) and pALTER-1 (Promega), respectively. A GABABR1a-Gαqi5 fusion protein expression vector was constructed using the pCI-Neo-GABABR1a cDNA plasmid and pLEC1-Gαqi5 (Molecular Devices, CA). In order to make the Gαqi5 pertussis toxin insensitive, Cys356 was mutated to Gly using standard PCR methodology with the primers 5′-[…]-3′ (forward) and 5′-GCGGCCG […]-3′ (reverse). The Gαqi5mut cDNA was ligated into the BamHI and NotI sites of pcDNA3.0 (Invitrogen). The GABAB R1a coding sequence was amplified by PCR from pCI-Neo-GABABR1a using the primers, 5′-[…]-3′ (forward) and 5′-[…]-3′ (reverse) and subcloned into the BamHI site of pcDNA3.0-Gαqi5mut.
For generation of a cell line expressing the GABABR1a/GABABR2 heterodimer, GABABR1a plasmid DNA (4 μg) GABABR2 plasmid DNA (4 μg) and lipofectamine (24 μl) were mixed in 5 ml OptiMEM and incubated for 45 minutes at room temperature. The cells were exposed to the transfection medium for 5 hours, which then was replaced with culture medium. The cells were cultured for an additional 10 days before selection agents (300 μg/ml hygromycin and 400 μg/ml geneticin) were added. Twenty-four days after transfection, single cell sorting into 96-well plates by flow cytometry was performed using a FACS Vantage SE (Becton Dickinson, Palo Alto, Calif.). After expansion, the GABAB receptor functional response was tested using the FLIPR assay described below. The clone with the highest functional response was collected, expanded and then subcloned by single cell sorting. The clonal cell line with the highest peak response in the FLIPR was used in the present study.
For generation of a stable cell line expressing GABABR1a-Gαqi5 fusion protein and GABABR2, GABABR1a-Gαqi5mut plasmid DNA (8 μg) GABABR2 plasmid DNA (8 μg) and lipofectamine (24 μl) were mixed in 5 ml OptiMEM and incubated for 45 minutes at room temperature. The cells were exposed to the transfection medium for 5 hours, which then was replaced with culture medium. After forty-eight hours, the cells were detached and seeded in 6 well plates (2000 cells/well) and grown in culture medium supplemented with geneticin (400 μg/ml) and zeocin (250 μg/ml). After 4 days, cells from single colonies were collected and transferred to a 24-well plate. After 10 days, the cell clones were seeded in T-25 flasks and grown for another 16 days before they were tested for GABAB receptor mediated functional response. […] The clonal cell line that gave the highest peak response in the FLIPR was used in the present study.
[^35S]-GTPγS binding assays were performed at 30° C. for 45 min in membrane buffer (100 mM NaCl, 5 mM MgCl2, 1 mM EDTA, 50 mM HEPES, pH 7.4) containing 0.025 μg/μl of membrane protein (prepared from the cell lines described above) with 0.01% bovine serum albumin (fatty acid free), 10 μM GDP, 10 μM DTT and 0.53 nM [^35S]-GTPγS (Amersham-Pharmacia Biotech) in a final volume of 200 μl. Non-specific binding was determined in the presence of 20 μM GTPγS. The reaction was started by the addition of GABA at concentration between 1 mM and 0.1 nM in the presence or absence of the required concentration of PAM. The reaction was terminated by addition of ice-cold wash buffer (50 mM Tris-HCl, 5 mM MgCl2, 50 mM NaCl, pH 7.4) followed by rapid filtration under vacuum through Printed Filtermat A glass fiber filters (Wallac) (0.05% PEI treated) using a Micro 96 Harvester (Skatron Instruments). The filters were dried for 30 min at 50° C., then a paraffin scintillant pad was melted onto the filters and the bound radioactivity was determined using a 1450 Microbeta Trilux (Wallac) scintillation counter.
GABA dose-response curves in the presence and absence of test compounds were constructed using the 4-parameter logistic equation, y=ymax+((ymin−ymax)/1+(x/C)^D), where C=EC50 and D=slope factor.

T1 sequence (Q9UBS5 15-961 limits assumed): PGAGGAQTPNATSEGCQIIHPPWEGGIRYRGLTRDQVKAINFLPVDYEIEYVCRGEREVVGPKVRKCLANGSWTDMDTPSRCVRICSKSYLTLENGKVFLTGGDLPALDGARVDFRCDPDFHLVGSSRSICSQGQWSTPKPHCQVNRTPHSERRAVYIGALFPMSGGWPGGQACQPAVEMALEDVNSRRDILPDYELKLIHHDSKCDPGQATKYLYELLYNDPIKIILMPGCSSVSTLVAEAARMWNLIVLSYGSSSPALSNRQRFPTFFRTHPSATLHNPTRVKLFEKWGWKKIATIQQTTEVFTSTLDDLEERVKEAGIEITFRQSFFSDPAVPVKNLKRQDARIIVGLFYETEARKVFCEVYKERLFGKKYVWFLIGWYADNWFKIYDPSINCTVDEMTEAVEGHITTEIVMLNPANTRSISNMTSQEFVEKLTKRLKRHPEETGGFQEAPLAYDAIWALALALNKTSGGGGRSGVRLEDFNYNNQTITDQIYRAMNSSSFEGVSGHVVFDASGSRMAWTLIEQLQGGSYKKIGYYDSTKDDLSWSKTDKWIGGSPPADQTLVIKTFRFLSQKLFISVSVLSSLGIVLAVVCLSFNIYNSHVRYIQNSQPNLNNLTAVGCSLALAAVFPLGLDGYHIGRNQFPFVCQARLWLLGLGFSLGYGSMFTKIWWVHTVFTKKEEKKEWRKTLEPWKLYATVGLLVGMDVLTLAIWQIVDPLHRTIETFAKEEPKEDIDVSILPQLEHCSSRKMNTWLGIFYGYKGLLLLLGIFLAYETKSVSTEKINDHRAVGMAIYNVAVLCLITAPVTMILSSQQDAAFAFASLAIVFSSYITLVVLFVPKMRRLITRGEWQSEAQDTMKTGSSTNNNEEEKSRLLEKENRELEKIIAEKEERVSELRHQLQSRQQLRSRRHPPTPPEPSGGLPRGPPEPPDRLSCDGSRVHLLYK
T1 sequence (O75899 42-941): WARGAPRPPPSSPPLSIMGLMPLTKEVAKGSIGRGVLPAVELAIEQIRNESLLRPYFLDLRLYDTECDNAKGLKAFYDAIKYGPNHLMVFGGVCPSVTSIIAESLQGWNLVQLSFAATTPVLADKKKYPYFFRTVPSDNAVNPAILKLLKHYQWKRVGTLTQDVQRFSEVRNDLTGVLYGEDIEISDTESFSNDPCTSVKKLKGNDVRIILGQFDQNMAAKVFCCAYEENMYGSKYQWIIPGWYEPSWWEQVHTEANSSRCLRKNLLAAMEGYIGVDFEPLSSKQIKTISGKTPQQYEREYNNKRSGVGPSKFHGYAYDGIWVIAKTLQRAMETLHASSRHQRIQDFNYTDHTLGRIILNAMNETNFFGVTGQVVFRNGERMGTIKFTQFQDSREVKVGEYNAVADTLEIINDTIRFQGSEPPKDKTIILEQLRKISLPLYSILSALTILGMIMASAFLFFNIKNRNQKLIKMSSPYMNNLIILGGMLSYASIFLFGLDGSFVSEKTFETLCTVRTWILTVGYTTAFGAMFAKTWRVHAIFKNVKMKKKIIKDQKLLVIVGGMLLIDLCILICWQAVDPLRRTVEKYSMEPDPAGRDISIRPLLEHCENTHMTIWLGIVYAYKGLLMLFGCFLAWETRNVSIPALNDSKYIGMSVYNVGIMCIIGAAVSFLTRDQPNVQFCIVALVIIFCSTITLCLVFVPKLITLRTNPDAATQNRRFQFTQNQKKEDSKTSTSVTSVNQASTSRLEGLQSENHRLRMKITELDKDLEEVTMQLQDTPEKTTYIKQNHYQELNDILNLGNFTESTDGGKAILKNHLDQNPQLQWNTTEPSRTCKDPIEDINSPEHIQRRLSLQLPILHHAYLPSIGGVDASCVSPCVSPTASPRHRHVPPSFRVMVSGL

| Compound | EC50 [µM] |
| --- | --- |
| CCc1nc2c(c(=O)n(Cc3ccc(Cl)cc3)c(=O)n2Cc2ccccc2)n1C [Example 1, 3-benzyl-1-(4-chlorobenzyl)-8-ethyl-7-methyl-3,7-dihydro-1H-purine-2,6-dione] | 6.33 |
| CCc1nc2c(c(=O)n(Cc3ccc(Cl)cc3)c(=O)n2CCC(C)(C)C)n1C [Example 2, 1-(4-Chlorobenzyl)-3-(3,3-dimethylbutyl)-8-ethyl-7-methyl-3,7-dihydro-1H-purine-2,6-dione] | 1.5 |
| CCc1nc2c(c(=O)n(Cc3ccc(Cl)cc3)c(=O)n2CC(=O)C(C)(C)C)n1C [Example 4, 1-(4-Chlorobenzyl)-3-(3,3-dimethyl-2-oxobutyl)-8-ethyl-7-methyl-3,7-dihydro-1H-purine-2,6-dione] | 1.6 |
| CCc1nc2c(c(=O)n(Cc3ccc(Cl)cc3)c(=O)n2C[C@H]2CCC(=O)N2)n1C [Example 6, 1-(4-Chlorobenzyl)-8-ethyl-7-methyl-3-{[(2R)-5-oxopyrrolidin-2-yl]methyl}-3,7-dihydro-1H-purine-2,6-dione] | 16.4 |
| CCc1nc2c(c(=O)n(Cc3ccc(Cl)cc3)c(=O)n2CC(=O)c2ccncc2)n1C [Example 7, 1-(4-Chlorobenzyl)-8-ethyl-7-methyl-3-(2-oxo-2-pyridin-4-ylethyl)-3,7-dihydro-1H-purine-2,6-dione] | 7.9 |
| CCc1nc2c(c(=O)n(Cc3ccc(Cl)cc3)c(=O)n2CC(C)C)n1C [Example 8, 1-(4-Chlorobenzyl)-8-ethyl-3-isobutyl-7-methyl-3,7-dihydro-1H-purine-2,6-dione] | 2.7 |
| CCc1nc2c(c(=O)n(Cc3ccc(Cl)cc3)c(=O)n2C[Si](C)(C)C)n1C [Example 9, 1-(4-Chlorobenzyl)-8-ethyl-7-methyl-3-[(trimethylsilyl)methyl]-3,7-dihydro-1H-purine-2,6-dione] | 2.1 |
| CCc1nc2c(c(=O)n(Cc3ccc(Cl)cc3)c(=O)n2C[C@@H]2CCC(=O)N2)n1C [Example 10, 1-(4-Chlorobenzyl)-8-ethyl-7-methyl-3-{[(2S)-5-oxopyrrolidin-2-yl]methyl}-3,7-dihydro-1H-purine-2,6-dione] | 14.6 |
| CCc1nc2c(c(=O)n(Cc3ccc(Cl)cc3)c(=O)n2CC(=O)OC)n1C [Example 11, Methyl [1-(4-chlorobenzyl)-8-ethyl-7-methyl-2,6-dioxo-1,2,6,7-tetrahydro-3H-purin-3-yl]acetate] | 8.5 |
| C=CCn1c(=O)n(Cc2ccc(Cl)cc2)c(=O)c2c1nc(CC)n2C [Example 12, 3-Allyl-1-(4-chlorobenzyl)-8-ethyl-7-methyl-3,7-dihydro-1H-purine-2,6-dione] | 6 |
| CCc1nc2c(c(=O)n(Cc3ccc(Cl)cc3)c(=O)n2Cc2ccc(Cl)cc2)n1C [Example 13, 1,3-Bis(4-chlorobenzyl)-8-ethyl-7-methyl-3,7-dihydro-1H-purine-2,6-dione] | 5.2 |
| CCc1nc2c(c(=O)n(Cc3ccc(Cl)cc3)c(=O)n2CC2OCCO2)n1C [Example 14, 1-(4-Chlorobenzyl)-3-(1,3-dioxolan-2-ylmethyl)-8-ethyl-7-methyl-3,7-dihydro-1H-purine-2,6-dione] | 12.3 |
| CCc1nc2c(c(=O)n(Cc3ccc(Cl)cc3)c(=O)n2Cc2ccccn2)n1C [Example 15, 1-(4-Chlorobenzyl)-8-ethyl-7-methyl-3-(pyridin-2-ylmethyl)-3,7-dihydro-1H-purine-2,6-dione] | 7.8 |
| CCc1nc2c(c(=O)n(Cc3ccc(Cl)cc3)c(=O)n2Cc2cc(C)on2)n1C [Example 16, 1-(4-Chlorobenzyl)-8-ethyl-7-methyl-3-[(5-methylisoxazol-3-yl)methyl]-3,7-dihydro-1H-purine-2,6-dione] | 6.8 |
| CCc1nc2c(c(=O)n(Cc3ccc(Cl)cc3)c(=O)n2Cc2cccnc2)n1C [Example 18, 1-(4-Chlorobenzyl)-8-ethyl-7-methyl-3-(pyridin-3-ylmethyl)-3,7-dihydro-1H-purine-2,6-dione] | 3.3 |
| CCc1nc2c(c(=O)n(Cc3ccc(Cl)cc3)c(=O)n2Cc2ccc(OC(F)F)cc2)n1C [Example 19, 1-(4-Chlorobenzyl)-3-[4-(difluoromethoxy)benzyl]-8-ethyl-7-methyl-3,7-dihydro-1H-purine-2,6-dione] | 3.7 |
| CCc1nc2c(c(=O)n(Cc3ccc(Cl)cc3)c(=O)n2CC2CCCCC2)n1C [Example 20, 1-(4-Chlorobenzyl)-3-(cyclohexylmethyl)-8-ethyl-7-methyl-3,7-dihydro-1H-purine-2,6-dione] | 3 |
| CCc1nc2c(c(=O)n(Cc3ccc(Cl)cc3)c(=O)n2CCCOC(C)(C)C)n1C [Example 21, 3-(3-tert-butoxypropyl)-1-(4-chlorobenzyl)-8-ethyl-7-methyl-3,7-dihydro-1H-purine-2,6-dione] | 7.2 |
| CCc1nc2c(c(=O)n(Cc3ccc(Cl)cc3)c(=O)n2Cc2ccc(S(C)(=O)=O)cc2)n1C [Example 22, 1-(4-chlorobenzyl)-8-ethyl-7-methyl-3-[4-(methylsulfonyl)benzyl]-3,7-dihydro-1H-purine-2,6-dione] | 2.5 |
| CCc1nc2c(c(=O)n(Cc3ccc(Cl)cc3)c(=O)n2CC(O)C(F)(F)F)n1C (stereo not drawn) [Example 23, 1-(4-chlorobenzyl)-8-ethyl-7-methyl-3-(3,3,3-trifluoro-2-hydroxypropyl)-3,7-dihydro-1H-purine-2,6-dione] | 2.1 |
| CCc1nc2c(c(=O)n(Cc3ccc(Cl)cc3)c(=O)n2CC2COc3ccccc3O2)n1C (stereo not drawn) [Example 24, 1-(4-chlorobenzyl)-3-(2,3-dihydro-1,4-benzodioxin-2-ylmethyl)-8-ethyl-7-methyl-3,7-dihydro-1H-purine-2,6-dione] | 5.1 |
| CCc1nc2c(c(=O)n(Cc3ccc(Cl)cc3)c(=O)n2Cc2ccc(SC(F)(F)F)cc2)n1C [Example 25, 1-(4-chlorobenzyl)-8-ethyl-7-methyl-3-{4-[(trifluoromethyl)thio]benzyl}-3,7-dihydro-1H-purine-2,6-dione] | 5.3 |
| CCc1nc2c(c(=O)n(Cc3ccc(Cl)cc3)c(=O)n2Cc2ccc(-n3cccn3)cc2)n1C [Example 26, 1-(4-chlorobenzyl)-8-ethyl-7-methyl-3-[4-(1H-pyrazol-1-yl)benzyl]-3,7-dihydro-1H-purine-2,6-dione] | 3.5 |
| CCc1nc2c(c(=O)n(Cc3ccc(Cl)cc3)c(=O)n2CCN(CC)CC)n1C [Example 27, 1-(4-chlorobenzyl)-3-[2-(diethylamino)ethyl]-8-ethyl-7-methyl-3,7-dihydro-1H-purine-2,6-dione] | 15.6 |
| CCc1nc2c(c(=O)n(Cc3ccc(Cl)cc3)c(=O)n2CC(=O)c2ccccc2)n1C [Example 28, 1-(4-chlorobenzyl)-8-ethyl-7-methyl-3-(2-oxo-2-phenylethyl)-3,7-dihydro-1H-purine-2,6-dione] | 2.6 |
| CCc1nc2c(c(=O)n(Cc3ccc(Cl)cc3)c(=O)n2CCO[Si](C)(C)C(C)(C)C)n1C [Example 29, 3-(2-{[tert-butyl(dimethyl)silyl]oxy}ethyl)-1-(4-chlorobenzyl)-8-ethyl-7-methyl-3,7-dihydro-1H-purine-2,6-dione] | 8.6 |
| CCc1nc2c(c(=O)n(Cc3ccc(Cl)cc3)c(=O)n2Cc2c(-c3ccccc3)noc2C)n1C [Example 30, 1-(4-chlorobenzyl)-8-ethyl-7-methyl-3-[(5-methyl-3-phenylisoxazol-4-yl)methyl]-3,7-dihydro-1H-purine-2,6-dione] | 4.6 |

Reference: patent US20090023704A1, “Novel Compounds 737” (ASTRAZENECA AB, priority 2007, published 2009)
